The text below walks through data of US20220041647A1, “ESTRA-1,3,5(10)-TRIENE COMPOUNDS CONDENSED IN POSITION 16(17) WITH A PYRAZOLE RING AS INHIBITORS OF 17-HSD1” (FORENDO PHARMA LTD, priority 2018, published 2022).

Data set [1] has as its target T1, recombinant human 17β-HSD2 (Homo sapiens, UniProt P37059).
T1 construct: made in house; host or cells: Sd9 (Sf9) insect cells, baculovirus (Bac to Bac Expression System)
T1 sequence (P37059 1-387): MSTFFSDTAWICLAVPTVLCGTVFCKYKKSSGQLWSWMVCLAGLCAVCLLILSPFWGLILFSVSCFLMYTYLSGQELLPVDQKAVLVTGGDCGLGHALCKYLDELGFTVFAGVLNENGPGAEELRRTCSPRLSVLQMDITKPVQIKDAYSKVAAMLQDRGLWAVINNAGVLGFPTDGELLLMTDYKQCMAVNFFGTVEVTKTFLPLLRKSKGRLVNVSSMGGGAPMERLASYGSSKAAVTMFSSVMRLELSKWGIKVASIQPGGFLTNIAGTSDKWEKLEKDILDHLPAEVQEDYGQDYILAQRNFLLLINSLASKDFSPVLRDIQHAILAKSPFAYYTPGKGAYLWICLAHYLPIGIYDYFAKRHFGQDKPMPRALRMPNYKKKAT
As to the kind of experiment: Inhibition of recombinant human 17β-HSD2 (estradiol to estrone conversion, HPLC/radioactivity). The class given is biochemical. Particulars: compound 1 μM; 50 nM estradiol, 1 mM NADH, 30 min RT. A digest of the protocol: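 Membrane extract of Sf9 cells expressing recombinant human 17β-HSD2 (4 μg/ml), in 20 mM KH2PO4 pH 8.5 with 50 nM ^3H-spiked estradiol and 1 mM NADH, 30 min at RT, 1% DMSO. Compound at 1 μM or 0.1 μM; estrone formation by HPLC radioactivity, % inhibition relative to uninhibited conversion.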

Data set [2] is described as follows: Metabolic stability assay, human hepatocyte incubations. Particulars: compound 1 μM, human hepatocytes, 0-60 min at 37° C.; read-out: Human hepatocytes MetStab T½ min. The class given is in vitro ADME. How it is done: Compound stock solutions of the invention were prepared in […]. Final concentration of DMSO was adjusted to 1% in all samples. The in vitro metabolic stability of the compounds of the invention was determined for exemplified compounds using human hepatocyte incubations; study compounds at concentration of 1 μM were incubated 0, 10, 20, 40 and 60 min at 37° C. Samples were collected at all time points and compounds were detected by LC-MS/MS analysis. The percent compound remaining is calculated by comparing the peak area of the parent compound at each time point to time zero. In vitro metabolic stability was determined as half life (T1/2), which was determined by regression analysis of the percent parent disappearance vs. time curve.

Data set [3] has as its target T2, recombinant human 17β-HSD1 (Homo sapiens, UniProt P14061).
T2 construct: made in house; host or cells: Sd9 (Sf9) insect cells, baculovirus (Bac to Bac Expression System)
T2 sequence (P14061 1-328): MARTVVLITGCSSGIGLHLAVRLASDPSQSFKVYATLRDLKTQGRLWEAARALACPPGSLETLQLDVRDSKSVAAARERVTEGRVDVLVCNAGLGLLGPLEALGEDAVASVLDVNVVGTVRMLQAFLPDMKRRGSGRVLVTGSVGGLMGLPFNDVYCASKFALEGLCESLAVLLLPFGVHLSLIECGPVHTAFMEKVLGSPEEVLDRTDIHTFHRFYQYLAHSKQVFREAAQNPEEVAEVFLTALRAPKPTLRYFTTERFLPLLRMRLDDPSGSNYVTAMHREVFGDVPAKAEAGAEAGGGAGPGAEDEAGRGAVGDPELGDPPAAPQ
As to the kind of experiment: Inhibition of recombinant human 17β-HSD1 (estrone to estradiol conversion, HPLC/radioactivity). Format: biochemical. Particulars: compound 100 nM; 30 nM estrone, 1 mM NADPH, 30 min RT. In short, it runs like this:
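Microsomal human 17β-HSD1 from Sf9 baculovirus (1 μg/ml) was incubated 30 min at RT in 20 mM KH2PO4 pH 7.4 with 30 nM ^3H-estrone, 1 mM NADPH and inhibitor at 1 μM or 0.1 μM (1% DMSO). Estrone and estradiol were separated by HPLC with radioactivity detection. % inhibition = 100 − % conversion relative to uninhibited control.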

Turning to `C[C@]12CCC3c4cccc(F)c4CCC3C1[C@H](CCC(=O)NC1CCOCC1)c1c[nH]nc12` (stereo partly drawn) [Compound 45, 3-((8aS,12S)-3-fluoro-8a-methyl-1,2,6b,7,8,8a,10,12,12a,12b-decahydronaphtho[2′,1′:4,5]indeno[1,2-c]pyrazol-12-yl)-N-(tetrahydro-2H-pyran-4-yl)propanamide], the inhibition (commonly the drop in the measured response relative to a control, in per cent) at 1 µM in data set [1] stood at 3%. Moreover, the half-life at 1 μM in data set [2] worked out at 35 min. The inhibition at 0.1 µM in data set [3] amounted to 90%.
`C[C@]12CCC3c4ccccc4CCC3C1[C@H](CCC(=O)N1CCCC1)c1c[nH]nc12` (stereo partly drawn) [Compound 147, 3-((8aS,12S)-8a-methyl-1,2,6b,7,8,8a,10,12,12a,12b-decahydronaphtho[2′,1′:4,5]indeno[1,2-c]pyrazol-12-yl)-1-(pyrrolidin-1-yl)propan-1-one]: the inhibition at 1 µM in data set [1] worked out at 11%. The half-life at 1 μM in data set [2] is 9 min. Besides, the inhibition at 0.1 µM in data set [3] turned out to be 86%.
In the case of `CC(C)(C)NC(=O)CC[C@@H]1c2c[nH]nc2[C@@]2(C)CCC3c4ccccc4CCC3C12` (stereo partly drawn) [Compound 201, N-(tert-butyl)-3-((8aS,12S)-8a-methyl-1,2,6b,7,8,8a,10,12,12a,12b-decahydronaphtho[2′,1′:4,5]indeno[1,2-c]pyrazol-12-yl)propanamide], the inhibition at 1 µM in data set [1] was determined as 4%. Further, the half-life at 1 μM in data set [2] is 13 min. Further, the inhibition at 0.1 µM in data set [3] came out at 87%.
As to `C[C@]12CCC3c4cccc(F)c4CCC3C1[C@H](CCC(=O)N1CCOCC1)c1c[nH]nc12` (stereo partly drawn) [Compound 234, 3-((8aS,12S)-3-fluoro-8a-methyl-1,2,6b,7,8,8a,10,12,12a,12b-decahydronaphtho[2′,1′:4,5]indeno[1,2-c]pyrazol-12-yl)-1-morpholinopropan-1-one], the inhibition at 1 µM in data set [1] is 0%. Also, in data set [2], the half-life at 1 μM came out at 26 min. Besides, the inhibition at 0.1 µM in data set [3] was 85%.
In the same order, the values of `CN(CC(C)(C)O)C(=O)CC[C@@H]1c2c[nH]nc2[C@@]2(C)CCC3c4cccc(F)c4CCC3C12` (stereo partly drawn) [Compound 243, 3-((8aS,12S)-3-fluoro-8a-methyl-1,2,6b,7,8,8a,10,12,12a,12b-decahydronaphtho[2′,1′:4,5]indeno[1,2-c]pyrazol-12-yl)-N-(2-hydroxy-2-methylpropyl)-N-methylpropanamide] are 5%, 15 min and 80%.
